# Measurements as given in US20250066412A1, “CRYSTAL OF 4’-SUBSTITUTED NUCLEOSIDE, PREPARATION METHOD THEREFOR, COMPOSITION CONTAINING THE SAME, AND USE THEREOF” (HENAN GENUINE BIOTECH CO., LTD., priority 2022, published 2025).
# Like-named read-outs stand apart in the source and are kept apart here.
# Tests used:
# [1] = crystal form stability by XRPD after heating, drying or storage; settings: for XRPD / crystal form after heating: heated to 120° C.
# [2] = at 110° C., DSC and TGA studies, background; cited from earlier work
# HIV [3] = settings: cited from earlier work; for inhibitory activities against HIV: literature reports; for EC50: E. Michailidis et al J. Biol. Chem. 2009, read-out: HIV inhibitory activity EC50
# HIV [4] = settings: CN109893536 B; read-out: anti-HIV activity EC50; cited from earlier work
# [5] = heated to 130° C. under nitrogen
# [6] = vacuum drying at room temperature for 24 h
# [7] = heated to 160° C. under nitrogen protection
compound,measurement,setting,value
C#C[C@]1(CO)O[C@@H](n2cnc3c(N)nc(F)nc32)[C@@H](F)[C@@H]1O [type-X crystal],weight loss,further heated from 130° C. to 160° C.,4.5%
same,weight loss,heated to 130° C.,7.9%
same,crystal form after heating (variable-temperature XRPD),[1]; further heated to 145° C.,the crystal form was transformed
same,XRPD / crystal form after heating,[1],the position of the diffraction peak shifted
same,XRPD after heating,[1]; [5],the diffraction peak intensity was significantly reduced
C#C[C@]1(CO)O[C@@H](n2cnc3c(N)nc(F)nc32)[C@@H](F)[C@@H]1O [crystal form A],weight loss,[2],9.0%
C#C[C@]1(CO)O[C@@H](n2cnc3c(N)nc(F)nc32)[C@@H](F)[C@@H]1O [type-XVI crystal],weight loss (dehydration),[6],14.39%
same,crystal form after heating (XRPD),"[1]; heated to 55° C. in a nitrogen atmosphere, held for 2 to 24 h",the type-XVII crystal was also obtained
same,crystal form after drying,[1]; [6],turned into a monohydrate crystal form
[N-]=[N+]=N[C@]1(CO)O[C@@H](n2ccc(N)nc2=O)[C@@H](F)[C@@H]1O [compound (II)],inhibitory activities against HIV,HIV [3],significant inhibitory activities
C#C[C@]1(CO)O[C@@H](n2cnc3c(N)nc(F)nc32)[C@@H](F)[C@@H]1O [type-XII crystal],weight loss,heated to 120° C.,59.6%
same,crystal form after drying,[1]; vacuum dried at room temperature for 10 min,transformed into an amorphous crystal
C#C[C@]1(CO)O[C@@H](n2cnc3c(N)nc(F)nc32)[C@@H](F)[C@@H]1O [type-IX crystal],weight loss,heated to 160° C.,20.3%
same,crystallinity after heating (XRPD),"[1]; heated to 95° C. under nitrogen, cooled to room temperature, exposed to air",the degree of crystallinity was further decreased
same,crystal form after heating (XRPD),[1]; [7],its crystal form had been transformed
same,crystallinity after storage,[1]; left closed at room temperature for about 3 days,a reduced degree of crystallinity
C#C[C@]1(CO)O[C@@H](n2cnc3c(N)nc(F)nc32)[C@@H](F)[C@@H]1O [type-XVII crystal],weight loss,dried at 90° C. for 1 to 24 h,5.47%
same,change on drying,[1]; dried at 90° C. for 1 to 24 h,lost one molecule of water
C#C[C@]1(CO)O[C@@H](n2cnc3c(N)nc(F)nc32)[C@@H](F)[C@@H]1O [type-XIV crystal],stability of the crystal form (overall finding),[1],unstable intermediate state
same,crystal form after removal from the solvent environment,[1]; room temperature,transformed into the type-XIII crystal
C#C[C@]1(CO)O[C@@H](n2cnc3c(N)nc(F)nc32)[C@@H](F)[C@@H]1O [type-XIII crystal],crystal form in a solvent environment,[1]; left in a solvent environment at room temperature,transformed into the type-XIV crystal
same,crystal form after drying,[1]; left open and dried at room temperature for about 2 h,the crystal form was transformed
"C#C[C@]1(CO)O[C@@H](n2cnc3c(N)ncnc32)C[C@@H]1O [EdA, 4′-ethynyl-2′-deoxyadenosine]",EC50,HIV [3],11 nM
C#C[C@]1(CO)O[C@@H](n2cnc3c(N)nc(F)nc32)[C@@H](F)[C@@H]1O [type-VIII crystal],weight loss,heated to 160° C.,10.6%
same,crystal form after heating (XRPD),[1]; [7],the crystal form had been transformed
C#C[C@]1(CO)O[C@@H](n2cnc3c(N)nc(F)nc32)[C@@H](F)[C@@H]1O [type-IV crystal],weight loss,heated to 120° C.,10.6%
same,XRPD after storage,[1]; dried crystal left closed at room temperature for about 5 days,increased relative intensity of the diffraction peaks and increased number of diffraction peaks
same,crystal form after heating (XRPD),[1]; heated to 141° C. under nitrogen protection,transformed into a stable type-III crystal
same,XRPD after drying,[1]; vacuum dried at room temperature for 15 min,decreased relative intensity of the diffraction peaks
C#C[C@]1(CO)O[C@@H](n2cnc3c(N)nc(F)nc32)[C@@H](F)[C@@H]1O [type-V crystal],weight loss,further heated from 140° C. to 240° C.,2.8%
same,weight loss,heated to 140° C.,15.4%
same,crystal form after heating (variable-temperature XRPD),[1]; further heated to 154° C.,transformed into another crystal
same,crystal form after heating (variable-temperature XRPD),[1]; heated to 90° C. and 130° C. under nitrogen protection,substantially transformed into an amorphous crystal
same,crystallinity (variable-temperature XRPD),[1]; purged with nitrogen for about 20 min,significant decrease in degree of crystallinity
C#C[C@]1(CO)O[C@@H](n2cnc3c(N)nc(F)nc32)[C@@H](F)[C@@H]1O [type-II crystal],crystal form after drying,[1]; vacuum dried at room temperature for half an hour,transformed into a type-III crystal
C#C[C@]1(CO)O[C@@H](n2cnc3c(N)nc(F)nc32)[C@@H](F)[C@@H]1O [type-III crystal],weight loss,heated to 200° C.,1.2%
same,crystal form after heating (variable-temperature XRPD),[1]; heated to 150° C. under nitrogen protection,the crystal form did not change
C#C[C@]1(CO)O[C@@H](n2cnc3c(N)nc(F)nc32)C[C@@H]1O [Compound 1],EC50,HIV [3],0.05 nM
same,increase of HIV inhibitory activity by introduction of 2-fluorine,HIV [3]; EFdA versus EdA,2200 times
same,inhibitory activities against HIV,HIV [3],significant inhibitory activities
C#C[C@]1(CO)O[C@@H](n2cnc3c(N)nc(F)nc32)[C@@H](F)[C@@H]1O [type-I crystal],weight loss,further heated from 110° C. to 200° C.,3.5%
same,weight loss,heated to 110° C.,13.2%
same,XRPD after heating,"[1]; heated to 55° C. under nitrogen, cooled to room temperature, exposed to air",the diffraction peak intensity of the sample was somewhat reduced
same,crystal form after heating (XRPD),[1]; heated to 100° C. under nitrogen protection,transformed into an amorphous crystal
"C#C[C@]1(CO)O[C@@H](n2cnc3c(N)nc(F)nc32)[C@@H](F)[C@@H]1O [compound (3), (2R,3R,4S,5R)-5-(6-amino-2-fluoro-9H-purin-9-yl)-2-ethynyl-4-fluoro-2-(hydroxymethyl)tetrahydrofuran-3-ol]",EC50,HIV [4],0.9 nM
C#C[C@]1(CO)O[C@@H](n2cnc3c(N)nc(F)nc32)[C@@H](F)[C@@H]1O [type-XV crystal],weight loss,heated to 120° C.,2.2%
same,XRPD / crystal form after heating,[1],the crystal form transformation occurred
C#C[C@]1(CO)O[C@@H](n2cnc3c(N)nc(F)nc32)[C@@H](F)[C@@H]1O [type-XI crystal],weight loss,heated to 120° C.,19.3%
C#C[C@]1(CO)O[C@@H](n2cnc3c(N)nc(F)nc32)[C@@H](F)[C@@H]1O [type-VI crystal],weight loss,further heated from 70° C. to 130° C.,5.9%
same,weight loss,heated to 70° C.,4.9%
same,crystal form after heating (XRPD),[1]; [7],the crystal form was transformed
C#C[C@]1(CO)O[C@@H](n2cnc3c(N)nc(F)nc32)[C@@H](F)[C@@H]1O [type-VII crystal],weight loss,heated to 130° C.,11.2%
same,XRPD after heating,[1]; [5],the crystal form was transformed
